Test results from PMC6986443, “T‐495, a novel low cooperative M1 receptor positive allosteric modulator, improves memory deficits associated with cholinergic dysfunction and is characterized by low gastrointestinal side effect risk” (Pharmacology Research & Perspectives, 2020).

Legend:
Experiment in all cases: Selectivity panel
Format in all cases: binding
Dopamine D3 = biological target: T1, Dopamine D3 (Homo sapiens, UniProt P35462)
T1 construct: purchased Eurofins Panlabs Taiwan Ltd
Text: (§1) The selectivity of T‐495 at 10 μmol/L against a panel of 106 targets, including receptors, enzymes, ion channels, and transporters, was characterized (Eurofins Panlabs Taiwan Ltd., Taipei, Taiwan).

Transporter, GABA = test system: Transporter, GABA
Text: as §1

Cannabinoid CB2 = biological target: T2, Cannabinoid CB2 (Homo sapiens, UniProt P34972)
T2 construct: purchased Eurofins Panlabs Taiwan Ltd
T2 sequence (P34972 whole entry): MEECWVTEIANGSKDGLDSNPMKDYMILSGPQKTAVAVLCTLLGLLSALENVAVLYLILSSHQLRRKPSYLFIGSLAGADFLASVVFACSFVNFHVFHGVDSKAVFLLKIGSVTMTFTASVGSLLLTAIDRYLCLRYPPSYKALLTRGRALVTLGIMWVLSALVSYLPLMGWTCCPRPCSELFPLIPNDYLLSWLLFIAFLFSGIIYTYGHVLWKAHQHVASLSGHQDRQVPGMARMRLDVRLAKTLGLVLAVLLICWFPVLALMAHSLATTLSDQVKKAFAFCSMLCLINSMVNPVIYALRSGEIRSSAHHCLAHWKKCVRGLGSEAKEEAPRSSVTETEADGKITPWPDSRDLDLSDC
Text: as §1

Androgen (testosterone) = test system: Androgen (testosterone)
Text: as §1

[1] = biological target: T3, Growth hormone secretagogue (ghrelin) (Homo sapiens, UniProt Q92847)
T3 construct: purchased Eurofins Panlabs Taiwan Ltd
T3 sequence (Q92847 whole entry): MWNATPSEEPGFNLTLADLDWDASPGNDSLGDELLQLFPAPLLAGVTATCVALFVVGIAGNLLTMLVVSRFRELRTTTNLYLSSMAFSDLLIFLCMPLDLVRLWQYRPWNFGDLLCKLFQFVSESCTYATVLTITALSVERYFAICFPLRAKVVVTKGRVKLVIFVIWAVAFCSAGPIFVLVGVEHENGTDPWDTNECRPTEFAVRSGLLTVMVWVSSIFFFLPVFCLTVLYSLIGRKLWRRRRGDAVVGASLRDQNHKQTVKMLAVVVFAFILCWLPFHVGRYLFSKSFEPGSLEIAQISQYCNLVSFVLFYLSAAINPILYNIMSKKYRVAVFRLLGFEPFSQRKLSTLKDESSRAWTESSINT
Text: as §1

GABAA, chloride channel = test system: GABAA, chloride channel
Text: as §1

Serotonin 5-HT1A = biological target: T4, Serotonin 5-HT1A (Homo sapiens, UniProt P08908)
T4 construct: purchased Eurofins Panlabs Taiwan Ltd
Text: as §1

Dopamine D4.2 = test system: Dopamine D4.2
Text: as §1

Opiate μ (OP3, MOP) = biological target: T5, Opiate μ (OP3, MOP) (Homo sapiens, UniProt P35372)
T5 construct: purchased Eurofins Panlabs Taiwan Ltd
T5 sequence (P35372 whole entry): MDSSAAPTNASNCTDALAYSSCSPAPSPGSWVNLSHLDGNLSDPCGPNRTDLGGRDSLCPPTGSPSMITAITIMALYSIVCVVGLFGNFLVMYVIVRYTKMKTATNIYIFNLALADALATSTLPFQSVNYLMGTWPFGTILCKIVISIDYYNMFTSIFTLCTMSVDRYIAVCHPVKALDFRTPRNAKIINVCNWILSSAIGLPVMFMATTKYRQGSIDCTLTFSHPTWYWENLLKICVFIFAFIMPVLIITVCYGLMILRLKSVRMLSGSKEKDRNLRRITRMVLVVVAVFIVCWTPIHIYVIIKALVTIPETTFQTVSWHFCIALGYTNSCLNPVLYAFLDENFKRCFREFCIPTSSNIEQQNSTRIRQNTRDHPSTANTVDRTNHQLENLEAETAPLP
Text: as §1

Potassium channel (KATP) = test system: Potassium channel (KATP)
Text: as §1

Opiate κ (OP2, KOP) = biological target: T6, Opiate κ (OP2, KOP) (Homo sapiens, UniProt P41145)
T6 construct: purchased Eurofins Panlabs Taiwan Ltd
Text: as §1

Glutamate, NMDA, glycine = test system: Glutamate, NMDA, glycine
Text: as §1

GABAA, muscimol, central = test system: GABAA, muscimol, central
Text: as §1

[2] = biological target: T7, Transporter, norepinephrine (NET) (Homo sapiens, UniProt P23975)
T7 construct: purchased Eurofins Panlabs Taiwan Ltd
Text: as §1

Cannabinoid CB1 = biological target: T8, Cannabinoid CB1 (Homo sapiens, UniProt P21554)
T8 construct: purchased Eurofins Panlabs Taiwan Ltd
Text: as §1

Bradykinin B1 = biological target: T9, Bradykinin B1 (Homo sapiens, UniProt P46663)
T9 construct: purchased Eurofins Panlabs Taiwan Ltd
Text: as §1

Potassium channel (SKCA) = test system: Potassium channel (SKCA)
Text: as §1

Adenosine A1 = biological target: T10, Adenosine A1 (Homo sapiens, UniProt P30542)
T10 construct: purchased Eurofins Panlabs Taiwan Ltd
Text: as §1

Glutamate, NMDA = test system: Glutamate, NMDA
Text: as §1

Histamine H2 = biological target: T11, Histamine H2 (Homo sapiens, UniProt P25021)
T11 construct: purchased Eurofins Panlabs Taiwan Ltd
Text: as §1

Angiotensin AT2 = biological target: T12, Angiotensin AT2 (Homo sapiens, UniProt P50052)
T12 construct: purchased Eurofins Panlabs Taiwan Ltd
Text: as §1

Tachykinin NK1 = biological target: T13, Tachykinin NK1 (Homo sapiens, UniProt P25103)
T13 construct: purchased Eurofins Panlabs Taiwan Ltd
Text: as §1

GABAB, non-selective = test system: GABAB, non-selective
Text: as §1

Melatonin MT1 = biological target: T14, Melatonin MT1 (Homo sapiens, UniProt P48039)
T14 construct: purchased Eurofins Panlabs Taiwan Ltd
T14 sequence (P48039 whole entry): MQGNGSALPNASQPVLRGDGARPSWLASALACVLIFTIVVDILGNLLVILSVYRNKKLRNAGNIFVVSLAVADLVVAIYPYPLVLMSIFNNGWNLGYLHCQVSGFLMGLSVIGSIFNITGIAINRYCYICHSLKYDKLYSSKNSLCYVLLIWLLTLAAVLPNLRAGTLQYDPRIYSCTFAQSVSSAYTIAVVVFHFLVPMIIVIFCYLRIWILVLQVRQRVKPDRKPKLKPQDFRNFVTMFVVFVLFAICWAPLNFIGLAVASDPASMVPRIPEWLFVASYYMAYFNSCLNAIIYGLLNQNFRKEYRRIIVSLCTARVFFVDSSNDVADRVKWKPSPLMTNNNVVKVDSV
Text: as §1

Glutamate, AMPA = test system: Glutamate, AMPA
Text: as §1

Serotonin 5-HT2A = biological target: T15, Serotonin 5-HT2A (Homo sapiens, UniProt P28223)
T15 construct: purchased Eurofins Panlabs Taiwan Ltd
Text: as §1

Dopamine D2S = biological target: T16, Dopamine D2S (Homo sapiens, UniProt P14416)
T16 construct: purchased Eurofins Panlabs Taiwan Ltd
Text: as §1

Muscarinic M1 = biological target: T17, Muscarinic M1 (Homo sapiens, UniProt P11229)
T17 construct: purchased Eurofins Panlabs Taiwan Ltd
T17 sequence (P11229 whole entry): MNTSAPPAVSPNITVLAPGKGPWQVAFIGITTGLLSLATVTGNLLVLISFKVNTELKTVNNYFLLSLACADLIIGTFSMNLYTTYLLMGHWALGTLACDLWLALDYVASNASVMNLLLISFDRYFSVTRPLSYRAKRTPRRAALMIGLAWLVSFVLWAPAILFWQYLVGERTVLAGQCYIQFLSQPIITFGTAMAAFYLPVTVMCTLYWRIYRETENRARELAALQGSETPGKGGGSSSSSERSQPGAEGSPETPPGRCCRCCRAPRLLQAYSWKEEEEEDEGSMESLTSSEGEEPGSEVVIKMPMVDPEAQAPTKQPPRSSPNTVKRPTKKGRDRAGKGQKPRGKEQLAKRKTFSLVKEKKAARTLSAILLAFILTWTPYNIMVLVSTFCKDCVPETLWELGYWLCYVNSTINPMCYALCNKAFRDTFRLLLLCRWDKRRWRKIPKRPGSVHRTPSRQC
Text: as §1

[3] = test system: Adrenergic α2, non-selective
Text: as §1

[4] = biological target: T18, Transporter, serotonin (SERT) (Homo sapiens, UniProt P31645)
T18 construct: purchased Eurofins Panlabs Taiwan Ltd
Text: as §1

Vasopressin V2 = biological target: T19, Vasopressin V2 (Homo sapiens, UniProt P30518)
T19 construct: purchased Eurofins Panlabs Taiwan Ltd
T19 sequence (P30518 whole entry): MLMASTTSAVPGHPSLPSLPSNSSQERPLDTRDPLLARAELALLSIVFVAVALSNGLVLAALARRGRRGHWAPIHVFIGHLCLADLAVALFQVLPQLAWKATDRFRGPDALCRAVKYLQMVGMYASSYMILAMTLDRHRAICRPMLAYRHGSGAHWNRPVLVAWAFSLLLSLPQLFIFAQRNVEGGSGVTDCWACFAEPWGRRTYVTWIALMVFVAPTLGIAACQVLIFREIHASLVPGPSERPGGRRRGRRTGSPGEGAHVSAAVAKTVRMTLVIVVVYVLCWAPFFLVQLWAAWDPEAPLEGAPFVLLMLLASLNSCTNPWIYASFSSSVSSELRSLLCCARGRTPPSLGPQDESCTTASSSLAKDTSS
Text: as §1

[5] = biological target: T20, Cholecystokinin CCK1 (CCKA) (Homo sapiens, UniProt P32238)
T20 construct: purchased Eurofins Panlabs Taiwan Ltd
Text: as §1

Opiate δ1 (OP1, DOP) = biological target: T21, Opiate δ1 (OP1, DOP) (Homo sapiens, UniProt P41143)
T21 construct: purchased Eurofins Panlabs Taiwan Ltd
Text: as §1

[6] = test system: GABAA, flunitrazepam, central
Text: as §1

Nicotinic acetylcholine = test system: Nicotinic acetylcholine
Text: as §1

[7] = test system: Transporter, vesicular monoamine (non-selective)
Text: as §1

Endothelin ETA = biological target: T22, Endothelin ETA (Homo sapiens, UniProt P25101)
T22 construct: purchased Eurofins Panlabs Taiwan Ltd
Text: as §1

Muscarinic M2 = biological target: T23, Muscarinic M2 (Homo sapiens, UniProt P08172)
T23 construct: purchased Eurofins Panlabs Taiwan Ltd
T23 sequence (P08172 whole entry): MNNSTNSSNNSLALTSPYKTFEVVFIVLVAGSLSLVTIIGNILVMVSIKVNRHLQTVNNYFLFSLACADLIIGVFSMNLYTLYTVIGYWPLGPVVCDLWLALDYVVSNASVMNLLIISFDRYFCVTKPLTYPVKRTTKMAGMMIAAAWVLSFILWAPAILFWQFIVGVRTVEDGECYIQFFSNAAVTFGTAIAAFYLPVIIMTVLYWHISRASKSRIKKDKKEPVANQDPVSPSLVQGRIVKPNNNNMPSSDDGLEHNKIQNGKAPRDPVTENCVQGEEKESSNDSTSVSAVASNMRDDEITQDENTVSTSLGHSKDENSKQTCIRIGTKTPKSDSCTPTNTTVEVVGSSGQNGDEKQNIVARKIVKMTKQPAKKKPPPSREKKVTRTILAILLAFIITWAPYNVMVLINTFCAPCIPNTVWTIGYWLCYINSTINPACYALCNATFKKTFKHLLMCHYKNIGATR
Text: as §1

Dopamine D1 = biological target: T24, Dopamine D1 (Homo sapiens, UniProt P21728)
T24 construct: purchased Eurofins Panlabs Taiwan Ltd
T24 sequence (P21728 whole entry): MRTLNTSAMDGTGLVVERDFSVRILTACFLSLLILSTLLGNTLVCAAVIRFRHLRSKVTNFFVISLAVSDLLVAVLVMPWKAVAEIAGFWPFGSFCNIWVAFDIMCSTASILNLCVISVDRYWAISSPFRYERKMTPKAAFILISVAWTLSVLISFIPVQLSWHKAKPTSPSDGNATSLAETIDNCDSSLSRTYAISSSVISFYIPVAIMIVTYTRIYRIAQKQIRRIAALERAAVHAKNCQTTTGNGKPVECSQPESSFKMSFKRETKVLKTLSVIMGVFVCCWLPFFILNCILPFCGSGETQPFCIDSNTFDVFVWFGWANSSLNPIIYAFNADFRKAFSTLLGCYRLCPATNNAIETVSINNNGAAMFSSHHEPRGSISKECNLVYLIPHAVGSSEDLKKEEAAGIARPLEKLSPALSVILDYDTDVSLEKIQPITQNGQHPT
Text: as §1

Glutamate, kainate = test system: Glutamate, kainate
Text: as §1

[8] = test system: Calcium channel L-type, benzothiazepine
Text: as §1

Progesterone PR-B = biological target: T25, Progesterone PR-B (Homo sapiens, UniProt P06401)
T25 construct: purchased Eurofins Panlabs Taiwan Ltd
T25 sequence (P06401 whole entry): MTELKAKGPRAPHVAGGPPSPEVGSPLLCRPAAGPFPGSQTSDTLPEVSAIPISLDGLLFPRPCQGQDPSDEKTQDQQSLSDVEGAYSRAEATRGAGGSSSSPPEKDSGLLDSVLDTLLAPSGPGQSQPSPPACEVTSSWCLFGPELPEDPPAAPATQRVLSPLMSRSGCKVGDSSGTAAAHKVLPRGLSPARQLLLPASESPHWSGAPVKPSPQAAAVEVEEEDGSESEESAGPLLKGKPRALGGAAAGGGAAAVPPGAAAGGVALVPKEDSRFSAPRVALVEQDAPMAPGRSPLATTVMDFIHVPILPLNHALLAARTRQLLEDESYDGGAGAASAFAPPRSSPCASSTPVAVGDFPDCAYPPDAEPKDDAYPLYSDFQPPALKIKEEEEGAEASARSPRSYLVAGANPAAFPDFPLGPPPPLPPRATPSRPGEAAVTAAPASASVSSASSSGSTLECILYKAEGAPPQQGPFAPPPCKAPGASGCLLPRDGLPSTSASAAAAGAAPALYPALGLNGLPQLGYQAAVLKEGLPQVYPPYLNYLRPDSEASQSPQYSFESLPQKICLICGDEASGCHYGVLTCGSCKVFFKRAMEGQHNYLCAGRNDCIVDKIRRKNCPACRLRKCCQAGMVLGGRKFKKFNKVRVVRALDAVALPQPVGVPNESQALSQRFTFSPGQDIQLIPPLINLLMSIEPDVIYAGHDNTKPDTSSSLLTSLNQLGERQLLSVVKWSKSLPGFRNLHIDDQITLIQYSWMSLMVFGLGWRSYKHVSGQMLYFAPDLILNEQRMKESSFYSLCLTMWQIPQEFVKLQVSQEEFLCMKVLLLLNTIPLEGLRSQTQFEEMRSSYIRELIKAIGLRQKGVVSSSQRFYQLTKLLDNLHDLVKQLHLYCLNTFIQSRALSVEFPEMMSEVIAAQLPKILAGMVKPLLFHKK
Text: as §1

Dopamine D2L = biological target: T26, Dopamine D2L (Homo sapiens, UniProt P14416)
T26 construct: purchased Eurofins Panlabs Taiwan Ltd
T26 sequence (P14416 whole entry): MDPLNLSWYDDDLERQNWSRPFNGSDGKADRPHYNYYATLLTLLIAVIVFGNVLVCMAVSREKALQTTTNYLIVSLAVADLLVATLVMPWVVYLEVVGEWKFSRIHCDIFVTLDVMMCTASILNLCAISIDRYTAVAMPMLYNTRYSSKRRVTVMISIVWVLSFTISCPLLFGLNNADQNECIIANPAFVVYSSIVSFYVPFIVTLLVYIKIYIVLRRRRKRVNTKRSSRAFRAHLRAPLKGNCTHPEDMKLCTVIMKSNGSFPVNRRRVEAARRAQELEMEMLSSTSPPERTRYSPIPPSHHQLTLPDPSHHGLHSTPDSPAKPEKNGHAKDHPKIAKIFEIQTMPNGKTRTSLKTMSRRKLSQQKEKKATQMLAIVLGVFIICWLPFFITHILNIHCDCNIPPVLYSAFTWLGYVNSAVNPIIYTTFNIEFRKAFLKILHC
Text: as §1

Angiotensin AT1 = biological target: T27, Angiotensin AT1 (Homo sapiens, UniProt P30556)
T27 construct: purchased Eurofins Panlabs Taiwan Ltd
T27 sequence (P30556 whole entry): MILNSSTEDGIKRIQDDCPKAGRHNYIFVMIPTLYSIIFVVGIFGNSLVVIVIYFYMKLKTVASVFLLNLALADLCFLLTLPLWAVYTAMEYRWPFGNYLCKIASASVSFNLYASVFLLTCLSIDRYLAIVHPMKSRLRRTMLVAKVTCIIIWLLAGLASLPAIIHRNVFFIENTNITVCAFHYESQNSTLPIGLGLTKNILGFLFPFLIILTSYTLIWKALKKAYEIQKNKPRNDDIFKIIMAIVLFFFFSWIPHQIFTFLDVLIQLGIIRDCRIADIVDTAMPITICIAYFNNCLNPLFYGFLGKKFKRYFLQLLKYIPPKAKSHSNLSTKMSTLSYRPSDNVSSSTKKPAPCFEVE
Text: as §1

Calcium channel N-type = biological target: T28, Calcium channel N-type (Rattus norvegicus, UniProt Q02294)
T28 construct: purchased Eurofins Panlabs Taiwan Ltd
Text: as §1

GABAB1B = biological target: T29, GABAB1B (Homo sapiens, UniProt Q9UBS5)
T29 construct: purchased Eurofins Panlabs Taiwan Ltd
Text: as §1

Cc1c(Cc2ccc(Cl)nc2)cc2c(c1Cl)OCN([C@H]1CCC[C@@H]1O)C2=O [T‐495, 8‐chloro‐6‐((6‐chloropyridin‐3‐yl)methyl)‐3‐((1S,2S)‐2‐hydroxycyclopentyl)‐7‐methyl‐2,3‐dihydro‐4H‐1,3‐benzoxazin‐4‐one]
inhibition at 10 µM (Dopamine D3): -3%
% inhibition at 10 μM (Transporter, GABA): -7%
inhibition at 10 µM (Cannabinoid CB2): 12%
% inhibition at 10 μM (Androgen (testosterone)): 3%
inhibition at 10 µM [1]: 8%
% inhibition at 10 μM (GABAA, chloride channel): 45%
inhibition at 10 µM (Serotonin 5-HT1A): 8%
% inhibition at 10 μM (Dopamine D4.2): 3%
inhibition at 10 µM (Opiate μ (OP3, MOP)): 12%
% inhibition at 10 μM (Potassium channel (KATP)): 2%
inhibition at 10 µM (Opiate κ (OP2, KOP)): 14%
% inhibition at 10 μM (Glutamate, NMDA, glycine): 15%
% inhibition at 10 μM (GABAA, muscimol, central): -1%
inhibition at 10 µM [2]: 17%
inhibition at 10 µM (Cannabinoid CB1): 14%
inhibition at 10 µM (Bradykinin B1): 2%
% inhibition at 10 μM (Potassium channel (SKCA)): 1%
inhibition at 10 µM (Adenosine A1): 15%
% inhibition at 10 μM (Glutamate, NMDA): 14%
inhibition at 10 µM (Histamine H2): 22%
inhibition at 10 µM (Angiotensin AT2): 0%
inhibition at 10 µM (Tachykinin NK1): -2%
% inhibition at 10 μM (GABAB, non-selective): 4%
inhibition at 10 µM (Melatonin MT1): 29%
% inhibition at 10 μM (Glutamate, AMPA): 20%
inhibition at 10 µM (Serotonin 5-HT2A): 20%
inhibition at 10 µM (Dopamine D2S): 15%
inhibition at 10 µM (Muscarinic M1): 15%
% inhibition at 10 μM [3]: 26%
inhibition at 10 µM [4]: 17%
inhibition at 10 µM (Vasopressin V2): -7%
inhibition at 10 µM [5]: 2%
inhibition at 10 µM (Opiate δ1 (OP1, DOP)): 4%
% inhibition at 10 μM [6]: 12%
% inhibition at 10 μM (Nicotinic acetylcholine): -4%
% inhibition at 10 μM [7]: 12%
inhibition at 10 µM (Endothelin ETA): -4%
inhibition at 10 µM (Muscarinic M2): 8%
inhibition at 10 µM (Dopamine D1): -7%
% inhibition at 10 μM (Glutamate, kainate): 13%
% inhibition at 10 μM [8]: -5%
inhibition at 10 µM (Progesterone PR-B): 21%
inhibition at 10 µM (Dopamine D2L): 4%
inhibition at 10 µM (Angiotensin AT1): 23%
inhibition at 10 µM (Calcium channel N-type): 0%
inhibition at 10 µM (GABAB1B): 6%
